Measured values published in patent US11167006B2 (Shanghai Tianci Life Science Development Co., Ltd., priority 2016, dated 2021).
Square brackets hold non-standard residues; d marks the D form. Peptide text beside a SMILES is read from it. NMeF = CN[C@@H](Cc1ccccc1)C(=O)O

Tests used:
[1] = test system: postoperative pain in mice; assay: Postoperative pain model (electronic Von Frey); format: in vivo, mouse; conditions: mechanical pain threshold
Excerpt: The postoperative pain in mice was detected mainly by an electronic Von Frey tenderness instrument. The basic pain threshold of normal mice was first determined, and then the mice were anesthetized with isoflurane. With the back facing up, the right hind paw of the mouse was fixed and disinfected with iodine solution. A 5 mm longitudinal incision was made with a No. 11 blade at 2 mm from the ankle to expose the plantaris, blood vessels and fascia, and the wound was sutured using a 4-0 surgical suture and a small suture needle, and the wound is coated with erythromycin ointment. The mechanical pain sensitivity value of the surgical foot of the mice was measured 6 h after the surgery, and then compound 9 was intrathecally or intraperitoneally given, and the mechanical pain threshold at different time points after administration were recorded.
The experimental data were expressed as mean±standard error (Means±S.E.M.), and the data for differences between groups treated with different drug concentrations were analyzed by one-way ANOVA (Bonferroni test in one-way ANOVA) for statistics and analysis, ***P<0.001 represents that there was a significant difference between the MPE value of the drug-treated group and that of the saline group.
First, the maximum analgesic effect (MPE) was calculated, MPF. […]

[2] = test system: movement coordination of mice; assay: Movement coordination, RotaRod; format: in vivo, mouse; conditions: subcutaneous 10 mg/kg
Protocol: The movement coordination of the mice was detected by a ZB-200 RotaRod System. The mice were first trained for two days at a rotational speed of 16 r/min and continuously trained three times a day. The maximum movement time for each training was set to 300 s, and mice with movement time less than 180 s were excluded after the training. On day 3 of the experiment, mice were tested for movement coordination at 10, 20, 30 and 40 min after subcutaneous administration of compound 9.
The experimental data were expressed as mean±standard error (Means±S.E.M.), and the differences between drug treatment groups were analyzed by one-way ANOVA (Dunnett test in one-way ANOVA) for data statistics and analysis.

Compound: C[C@@H](NC(=O)[C@@H](N)Cc1ccc(O)cc1)C(=O)NCC(=O)N(C)[C@@H](Cc1ccccc1)C(=O)NCC(=O)N1CCC[C@H]1C(=O)N[C@@H](CCC(N)=O)C(=O)N[C@@H](CCCNC(=N)N)C(=O)N[C@@H](Cc1ccccc1)C(N)=O [Compound 9, Tyr-D-Ala-Gly-NMe-Phe-Gly-Pro-Gln-Arg-Phe-NH2] (H-Y[dA]G[NMeF]GPQRF-NH2)
- ED50 value of analgesia for postoperative pain ([1]; intraperitoneal): 26.15 (22.62-30.23) mg/kg
- ED50 value of analgesia for postoperative pain ([1]; intrathecal): 8.63 (6.70-11.11) pmol
- effect on movement coordination [2]: did not significantly affect movement coordination
